Measurements published in publication PMC10655391, “Inhibition of Hsp110-STAT3 interaction in endothelial cells alleviates vascular remodeling in hypoxic pulmonary arterial Hypertension model” (Respiratory Research, 2023).

Target: T1, Hsp110 (Homo sapiens, UniProt Q92598)
T1 construct: gene HSPH1; purified recombinant human Hsp110 (His6-SUMO tag cleaved)
Assay: luciferase anti-aggregation assay with purified Hsp110 at […] (single concentration)
Assay type: biochemical
Details: read-out: % reduction of anti-aggregating activity at 100 μM

T1 sequence (Q92598 whole entry): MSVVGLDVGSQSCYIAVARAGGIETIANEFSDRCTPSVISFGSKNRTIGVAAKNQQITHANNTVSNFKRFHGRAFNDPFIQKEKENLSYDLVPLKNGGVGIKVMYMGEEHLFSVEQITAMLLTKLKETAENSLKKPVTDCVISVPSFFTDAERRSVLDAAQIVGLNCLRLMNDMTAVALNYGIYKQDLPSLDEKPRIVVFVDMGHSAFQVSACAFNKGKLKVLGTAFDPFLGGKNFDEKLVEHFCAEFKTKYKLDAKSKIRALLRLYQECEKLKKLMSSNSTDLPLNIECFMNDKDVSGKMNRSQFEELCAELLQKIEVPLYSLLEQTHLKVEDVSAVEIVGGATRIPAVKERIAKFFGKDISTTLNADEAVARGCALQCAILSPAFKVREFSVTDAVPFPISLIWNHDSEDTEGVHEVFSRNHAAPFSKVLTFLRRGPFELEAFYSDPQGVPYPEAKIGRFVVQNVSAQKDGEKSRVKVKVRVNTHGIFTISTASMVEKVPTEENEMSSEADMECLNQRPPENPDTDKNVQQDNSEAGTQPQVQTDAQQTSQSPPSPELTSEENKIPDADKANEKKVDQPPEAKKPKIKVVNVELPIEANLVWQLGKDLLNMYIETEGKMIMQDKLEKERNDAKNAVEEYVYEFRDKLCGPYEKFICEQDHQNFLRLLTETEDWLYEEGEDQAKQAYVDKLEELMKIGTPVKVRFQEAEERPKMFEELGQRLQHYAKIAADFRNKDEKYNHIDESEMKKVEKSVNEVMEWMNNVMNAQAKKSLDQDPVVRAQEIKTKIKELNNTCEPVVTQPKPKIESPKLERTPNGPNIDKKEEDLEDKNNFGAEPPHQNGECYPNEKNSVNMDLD

Compound: Cc1ccccc1COc1nc2c(cc1-c1nc(N)cc(N)n1)c(C)nn2-c1ccccc1 [compound 5]
- inhibition at 100 µM: > 50%

Compound: Cc1nn(-c2ccccc2)c2nc(OCc3cnc(Cl)s3)c(-c3nc(N)cc(N)n3)cc12 [compound 8]
- inhibition at 100 µM: > 50%
